The values below come from patent US10428142B2, “Multipartite signaling proteins and uses thereof” (BLUEBIRD BIO, INC., priority 2013, dated 2019).

The structures appear in SMILES notation. Read-outs that look alike come from different tables or passages of the source.

In series [1] the test system is K562-CD19 target cells. The series can be described thus: Titration of bridging factors, DARIC T cell cytotoxicity. The conditions noted are these: DARIC expressing T cells, 5:1, 50:50 K562-CD19:K562-CD20.
Description: (§1) A broad range of bridging factor (rapamycin and everolimus) concentrations were tested to determine whether a DARIC system can function at clinically relevant concentrations. As in the Example 4, primary human T cells were isolated, activated, and then transduced with lentiviral vectors expressing a DARIC binding component (SEQ ID NOS.:1, 4, 7) and a DARIC signaling component (SEQ ID NOS.:15, 19, 23). The DARIC expressing T cells were then co-incubated with 50:50 mixtures of the K562-CD19 and K562-CD20 target cells to evaluate antigen-specific cytotoxicity. The overall ratio of T cells to K562 cells was 5:1 in all samples.
Series [2] relates to K562-CD19 cells. The following applies: for elimination of K562-CD19 cells by bridging factor: rapamycin 10 nM or AP21967 100 nM, 5:1. The method, then: The transduced T cells were then co-incubated with about a 50:50 mixture of the K562 target cells expressing either CD19 (K562-CD19) or CD20 (K562-CD20) to evaluate antigen-specific cytotoxicity. […] The DARIC antigen binding component includes a CD19 antigen binding scFv domain and a FKBP12 multimerization domain, which was linked to a mCherry fluorescent protein.
In addition, two distinct T cell populations were mixed, wherein one population was expressing a DARIC antigen binding component and the other population was expressing a DARIC signaling component.

Series [3] deals with K562-CD19 cells. The series can be described thus: Deactivation of DARIC cytotoxicity using an anti-bridging factor. The series is classed as cell-based, human.
Description: Deactivation of the DARIC system by the addition of a pharmacological agent that competes for binding to one of the multimerization domains was tested. Primary human T cells expressing either a traditional CD19 targeting CAR or primary human T cells expressing the CD19 targeting DARIC components (SEQ ID NO.:66) were co-incubated with 50:50 mixtures of K562-CD19 and K562-CD20 cells.
The subject of series [4] is K562-CD19 target cells.
Description: as §1

As for `CO[C@H]1C[C@@H]2CC[C@@H](C)[C@@](O)(O2)C(=O)C(=O)N2CCCC[C@H]2C(=O)O[C@H]([C@H](C)C[C@@H]2CC[C@@H](O)[C@H](OC)C2)CC(=O)[C@H](C)/C=C(\C)[C@@H](O)[C@@H](OC)C(=O)[C@H](C)C[C@H](C)/C=C/C=C/C=C/1C` [rapamycin], in the series with K562-CD19 target cells [1], the “cytotoxicity responses over bridging factor concentration” value is recorded as “maintained to sub-nanomolar drug concentrations”. In the series with K562-CD19 cells [2] (mixed T cell populations, one expressing the binding component, the other the signaling component), the “cytotoxicity by bridging factor” value is “cytotoxicity response against K562-CD19 cells”. In the case of `C=CC[C@@H]1/C=C(\C)C[C@H](C)C[C@H](OC)[C@H]2O[C@@](O)(C(=O)C(=O)N3CCCC[C@H]3C(=O)O[C@H](/C(C)=C/[C@@H]3CC[C@@H](O)[C@H](OC)C3)[C@H](C)[C@@H](O)CC1=O)[C@H](C)C[C@@H]2OC` [FK506], the “reduction in antigen specific cytotoxicity when added” value with K562-CD19 cells [3] (CD19 targeting CAR T cells) is given as “minimal reduction”; with K562-CD19 cells [3] (CD19 targeting DARIC T cells with rapamycin), “marked reduction”. In the case of `CO[C@H]1C[C@@H]2CC[C@@H](C)[C@@](O)(O2)C(=O)C(=O)N2CCCC[C@H]2C(=O)O[C@H]([C@H](C)C[C@@H]2CC[C@@H](OCCO)[C@H](OC)C2)CC(=O)[C@H](C)/C=C(\C)[C@@H](O)[C@@H](OC)C(=O)[C@H](C)C[C@H](C)/C=C/C=C/C=C/1C` [everolimus], in the series with K562-CD19 target cells [4], the “cytotoxicity responses over bridging factor concentration” value is “maintained to sub-nanomolar drug concentrations”. Turning to `CO[C@H]1[C@@H](O)[C@H](C)C[C@H](C)/C=C/C=C/C=C(\C)[C@@H](c2c[nH]c3c(C)cccc23)C[C@@H]2CC[C@@H](C)[C@@](O)(O2)C(=O)C(=O)N2CCCC[C@H]2C(=O)O[C@H]([C@H](C)C[C@@H]2CC[C@@H](O)[C@H](OC)C2)C[C@H](O)[C@H](C)/C=C(\C)[C@H]1O` [AP21967, C-16-(S)-7-methylindolerapamycin], the “elimination of K562-CD19 cells by bridging factor” value with K562-CD19 cells [2] (T cells with CD19 scFv-FKBP12 binding component and FRB (2021-2113) T2098L signaling component) was “elimination of the CD19 expressing K562 cells”; with K562-CD19 cells [2] (T cells with CD19 scFv-FKBP12 binding component and FRB signaling component), “no effect on cell survival”.
